Assay results taken from patent US11492385B2, “Long-acting co-agonists of the glucagon and GLP-1 receptors” (Merck Sharp & Dohme Corp., priority 2015, dated 2022).
“Also recorded” adds a separate entry of the source. Starred links: 1 amine or outer side, 2 acyl side, 3 side chain; linkers in the order of their positions; H or OH if unused. Non-standard residues stand in square brackets, D forms with d. Residues, ends and D or L forms follow the SMILES beside them. Groups on a side chain read outwards from the residue. No end group written: not given here. *: point of attachment. Phe(4-CH2NH2) = NCc1ccc(C[C@H](N)C(=O)O)cc1; C18 diacid = O=C(O)CCCCCCCCCCCCCCCCC(=O)*; C16 diacid = O=C(O)CCCCCCCCCCCCCCC(=O)*; γGlu = O=C(O)[C@H](CCC(=O)[*:2])N[*:1]; Met(O2) = CS(=O)(=O)CC[C@H](N)C(=O)O; αMeD = C[C@](N)(CC(=O)O)C(=O)O; AEEA = NCCOCCOCC(=O)O; Aib = CC(C)(N)C(=O)O

Columns and labels:
[1] = Duration of action in DIO mice: food intake after a single sc dose; format: in vivo; settings: for change in food intake over four days: single sc dose at day zero, compared to liraglutide and semaglutide (FIG. 1B)
Experimental: (§1) In this example, the duration of action of several of the peptides or co-agonist peptides was evaluated in diet-induced obese (DIO) mice. The duration of action of the peptides were compared to the duration of action of Semaglutide (sema) and Liraglutide (lira). The peptides tested were SEQ ID NOs: 2, 19, 28, 29, and 33 (Seq 2, Seq 19, Seq 28, Seq 29, and Seq 33, respectively).

[2] = Duration of action in DIO mice: body weight after a single sc dose; format: in vivo; settings: for change in body weight over four days: single sc dose at day zero, compared to liraglutide and semaglutide (FIG. 1A)
Experimental: as §1

[3] = Duration of action in DIO mice: blood glucose after a single sc dose; format: in vivo; settings: single sc dose at day zero, compared to liraglutide and semaglutide (FIG. 1C)
Experimental: as §1

[4] = mouse, in vivo, sc
Experimental: DIO mice were divided into groups of eight mice per group and the initial average body weight, food intake and basal glucose of each group were matched. Each group of mice was subcutaneously (sc) injected with a single dose of peptide or vehicle control. The administered doses varied between 3 and 300 nmol/kg. […] A separate set of mice were treated with same dose of each peptide. Serial blood was taken at 5 hours, 24 hours, 48 hours and 72 hours post sc injection to measure drug exposure.

human GCGR = target: T1, human GCGR (Homo sapiens, UniProt P47871); assay: cAMP activity assay, cells expressing human GCGR; format: cell-based
T1 construct: expressed in transfected cells; kept under Blasticidin and Hygromycin selection
T1 sequence (P47871 26-477): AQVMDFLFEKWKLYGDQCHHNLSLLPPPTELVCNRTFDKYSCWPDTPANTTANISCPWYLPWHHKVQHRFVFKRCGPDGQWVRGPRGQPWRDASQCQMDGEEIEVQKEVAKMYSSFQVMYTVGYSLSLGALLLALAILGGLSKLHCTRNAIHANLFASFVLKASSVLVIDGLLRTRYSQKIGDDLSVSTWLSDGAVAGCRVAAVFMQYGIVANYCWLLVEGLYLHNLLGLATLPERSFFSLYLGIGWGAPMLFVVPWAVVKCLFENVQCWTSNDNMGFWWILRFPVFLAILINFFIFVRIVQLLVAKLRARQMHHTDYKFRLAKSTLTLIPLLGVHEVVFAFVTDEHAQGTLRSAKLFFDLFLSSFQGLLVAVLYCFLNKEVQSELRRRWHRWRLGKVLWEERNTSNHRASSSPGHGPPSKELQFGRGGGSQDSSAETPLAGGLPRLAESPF
Summary of the method: (§2)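 Peptides as 10-point titrations from DMSO tested on cells expressing human GLP1R or GCGR. cAMP measured by luminescent kit after overnight room-temperature incubation in the dark. EC50 from four-parameter logistic fit; native GLP-1 and glucagon as controls.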

human GLP1R = target: T2, human GLP1R (Homo sapiens, UniProt P43220); assay: cAMP activity assay, cells expressing human GLP1R; format: cell-based; settings: cAMP production, assay buffer with or without 20% human serum (not stated which)
T2 construct: expressed in transfected cells; kept under Blasticidin and Hygromycin selection
T2 sequence (P43220 24-463): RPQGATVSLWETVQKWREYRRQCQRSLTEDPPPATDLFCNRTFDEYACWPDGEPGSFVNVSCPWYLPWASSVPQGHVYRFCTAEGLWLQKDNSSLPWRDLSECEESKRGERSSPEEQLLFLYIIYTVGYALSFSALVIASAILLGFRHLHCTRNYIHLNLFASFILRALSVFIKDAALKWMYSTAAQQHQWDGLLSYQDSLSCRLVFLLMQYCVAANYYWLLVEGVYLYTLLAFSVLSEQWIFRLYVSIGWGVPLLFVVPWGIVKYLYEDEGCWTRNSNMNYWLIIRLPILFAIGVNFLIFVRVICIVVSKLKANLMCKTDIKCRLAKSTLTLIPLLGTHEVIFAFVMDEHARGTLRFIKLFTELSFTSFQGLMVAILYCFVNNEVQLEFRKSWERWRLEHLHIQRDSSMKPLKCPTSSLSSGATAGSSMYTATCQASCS
Summary of the method: as §2

## HsQGTFTSDYSKYLDARAAK( ? -γE-C16—OH)DFVQWLLDT—NH2 (H[dS]QGTFTSDYSKYLDARAAK([AEEA-AEEA-γGlu-C16 diacid])DFVQWLLDT-NH2; N-terminus assumed; SMILES CC(C)C[C@H](NC(=O)[C@H](Cc1ccc(O)cc1)NC(=O)[C@H](CCCCN)NC(=O)[C@H](CO)NC(=O)[C@H](Cc1ccc(O)cc1)NC(=O)[C@H](CC(=O)O)NC(=O)[C@H](CO)NC(=O)[C@@H](NC(=O)[C@H](Cc1ccccc1)NC(=O)[C@@H](NC(=O)CNC(=O)[C@H](CCC(N)=O)NC(=O)[C@@H](CO)NC(=O)[C@@H](N)Cc1c[nH]cn1)[C@@H](C)O)[C@@H](C)O)C(=O)N[C@@H](CC(=O)O)C(=O)N[C@@H](C)C(=O)N[C@@H](CCCNC(=N)N)C(=O)N[C@@H](C)C(=O)N[C@@H](C)C(=O)N[C@@H](CCCCNC(=O)COCCOCCNC(=O)COCCOCCNC(=O)CC[C@H](NC(=O)CCCCCCCCCCCCCCC(=O)O)C(=O)O)C(=O)N[C@@H](CC(=O)O)C(=O)N[C@@H](Cc1ccccc1)C(=O)N[C@H](C(=O)N[C@@H](CCC(N)=O)C(=O)N[C@@H](Cc1c[nH]c2ccccc12)C(=O)N[C@@H](CC(C)C)C(=O)N[C@@H](CC(C)C)C(=O)N[C@@H](CC(=O)O)C(=O)N[C@H](C(N)=O)[C@@H](C)O)C(C)C) [SEQ ID NO: 2]
[1]
  change in food intake over four days: more sustained reduction in food intake
[2]
  change in body weight over four days: more pronounced and sustained change in body weight

## HXQGTFTSDYSKYLDARAAK( ? -γE-C18—OH)DFVQWL2DT—NH2 (H[Aib]QGTFTSDYSKYLDARAAK([AEEA-AEEA-γGlu-C18‑OH])DFVQWL[Met(O2)]DT-NH2) [SEQ ID NO: 29]
[1]; listed as Seq 29
  change in food intake over four days: more sustained reduction in food intake; also recorded: particularly evident
[2]; listed as Seq 29
  change in body weight over four days: more pronounced and sustained change in body weight; also recorded: particularly pronounced
[3]; listed as Seq 29
  blood glucose lowering effect over four days: greater reduction in blood glucose
[3]; listed as Seq29
  blood glucose lowering effect over four days: particularly effective

## HXQGTFTSDpAF( ? -γE-C18—OH)SKYLDARAAQDFVQWL2DT—NH2 (H[Aib]QGTFTSD[Phe(4-CH2NH2)]([AEEA-AEEA-γGlu-C18‑OH])SKYLDARAAQDFVQWL[Met(O2)]DT-NH2) [SEQ ID NO: 28]
[1]
  change in food intake over four days: more sustained reduction in food intake
[2]
  change in body weight over four days: more pronounced and sustained change in body weight
[3]
  blood glucose lowering effect over four days: greater reduction in blood glucose

## HXQGTFTSDYSKYLDARAAK( ? -γE-C18—OH)DFVQWL2αMDT—NH2 (H[Aib]QGTFTSDYSKYLDARAAK([AEEA-AEEA-γGlu-C18‑OH])DFVQWL[Met(O2)][αMeD]T-NH2) [SEQ ID NO: 33]
[1]; listed as Seq 33
  change in food intake over four days: more sustained reduction in food intake; also recorded: particularly evident
[2]; listed as Seq 33
  change in body weight over four days: more pronounced and sustained change in body weight; also recorded: particularly pronounced
[4]
  PK over three days: more prolonged PK
[3]; listed as Seq 33
  blood glucose lowering effect over four days: greater reduction in blood glucose; also recorded: particularly effective

## HXQGTFTSDYSKYLDARAAK( ? -γE-C16—OH)DFVQWL2DT—NH2 (H[Aib]QGTFTSDYSKYLDARAAK([AEEA-AEEA-γGlu-C16 diacid])DFVQWL[Met(O2)]DT-NH2; N-terminus assumed; SMILES CC(C)C[C@H](NC(=O)[C@H](Cc1ccc(O)cc1)NC(=O)[C@H](CCCCN)NC(=O)[C@H](CO)NC(=O)[C@H](Cc1ccc(O)cc1)NC(=O)[C@H](CC(=O)O)NC(=O)[C@H](CO)NC(=O)[C@@H](NC(=O)[C@H](Cc1ccccc1)NC(=O)[C@@H](NC(=O)CNC(=O)[C@H](CCC(N)=O)NC(=O)C(C)(C)NC(=O)[C@@H](N)Cc1c[nH]cn1)[C@@H](C)O)[C@@H](C)O)C(=O)N[C@@H](CC(=O)O)C(=O)N[C@@H](C)C(=O)N[C@@H](CCCNC(=N)N)C(=O)N[C@@H](C)C(=O)N[C@@H](C)C(=O)N[C@@H](CCCCNC(=O)COCCOCCNC(=O)COCCOCCNC(=O)CC[C@H](NC(=O)CCCCCCCCCCCCCCC(=O)O)C(=O)O)C(=O)N[C@@H](CC(=O)O)C(=O)N[C@@H](Cc1ccccc1)C(=O)N[C@H](C(=O)N[C@@H](CCC(N)=O)C(=O)N[C@@H](Cc1c[nH]c2ccccc12)C(=O)N[C@@H](CC(C)C)C(=O)N[C@@H](CCS(C)(=O)=O)C(=O)N[C@@H](CC(=O)O)C(=O)N[C@H](C(N)=O)[C@@H](C)O)C(C)C) [SEQ ID NO: 19]
[1]; single dose at 20 nmol/kg or 60 nmol/kg at day zero, compared to liraglutide and semaglutide (FIG. 3B)
  change in food intake over eight days: comparable to liraglutide or semiglutide in reducing food intake
[1]
  change in food intake over four days: more sustained reduction in food intake
[2]; single dose at 20 nmol/kg or 60 nmol/kg at day zero, compared to liraglutide and semaglutide (FIG. 3A)
  change in body weight over eight days: more pronounced and sustained change in body weight
[2]
  change in body weight over four days: more pronounced and sustained change in body weight
[4]
  PK over three days: more prolonged PK
[3]
  blood glucose lowering effect over four days: greater reduction in blood glucose

## CC(C)C[C@H](NC(=O)[C@H](CC(C)C)NC(=O)[C@H](CCCCN)NC(=O)[C@H](CO)NC(=O)[C@H](Cc1ccc(O)cc1)NC(=O)[C@H](CC(=O)O)NC(=O)[C@H](CO)NC(=O)[C@@H](NC(=O)[C@H](Cc1ccccc1)NC(=O)[C@@H](NC(=O)CNC(=O)[C@H](CCC(N)=O)NC(=O)C(C)(C)NC(=O)[C@@H](N)Cc1c[nH]cn1)[C@@H](C)O)[C@@H](C)O)C(=O)N[C@@H](CC(=O)O)C(=O)N[C@@H](C)C(=O)N[C@@H](CCCNC(=N)N)C(=O)N[C@@H](C)C(=O)N[C@@H](C)C(=O)N[C@@H](CCCCNC(=O)COCCOCCNC(=O)COCCOCCNC(=O)CC[C@H](NC(=O)CCCCCCCCCCCCCCCCC(=O)O)C(=O)O)C(=O)N[C@@H](CC(=O)O)C(=O)N[C@@H](Cc1ccccc1)C(=O)N[C@H](C(=O)N[C@@H](CCC(N)=O)C(=O)N[C@@H](Cc1c[nH]c2ccccc12)C(=O)N[C@@H](CC(C)C)C(=O)N[C@@H](CCS(C)(=O)=O)C(=O)N[C@@H](CC(=O)O)C(=O)N[C@H](C(N)=O)[C@@H](C)O)C(C)C [compound 76] (H-H[Aib]QGTFTSDYSKLLDARAAK([AEEA-AEEA-γGlu-C18 diacid])DFVQWL[Met(O2)]DT-NH2; N-terminus assumed)
Human GCGR; cAMP production, cells expressing human GCGR, assay buffer with or without 20% human serum (not stated which), read-out: GCGR EC50 human
  EC50: 0.74 nM
Human GCGR; ratio of human GCGR EC50 to human GLP1R EC50
  hGCGR/hGLP1R (hTone): 1.2
Human GLP1R
  EC50: 0.61 nM
